# How the values were obtained:
# [1] = system: CD46 expression; assay: CD46 expression by RNA-sequencing in unpaired pre-treatment and post-treatment tumor biopsies; format: in vivo, human; settings: for CD46 expression Post: post-treatment biopsies
# [2] = system: CD46 expression; assay: CD46 expression by RNA-sequencing in paired tumor biopsies before and after therapy; settings: paired biopsies; for CD46 expression, Post-Treatment Biopsy / CD46 expression, Pre-Treatment Biopsy: RNA-seq log2-transformed counts;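 as to all read-outs here: FFPE human tumor biopsies, exome-capture RNA-seq, reads aligned to GRCh37, counts normalized for GC content, length and depth, summed per gene, log2-transformed, samples paired before versus after therapy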
# Method: Gene expression was determined by RNA-sequencing from formalin-fixed, paraffin-embedded (FFPE) tumor samples using an exome capture-based protocol. Briefly, total nucleic acid was extracted from FFPE solid tumor samples. The RNA sample was treated with DNAse and reverse transcribed. cDNA was captured with a custom probe set targeting the human exome. A library was prepared from the captured cDNA and sequenced on the Illumina platform. Sequence read were aligned to GRCh37 using Kallisto and normalized to quantify gene expression. Specifically, transcript counts were corrected for GC content and length using quantile normalization and adjusted for sequencing depth via a size factor method. Normalized counts in protein coding transcripts covered by the exome panel were then summed to obtain gene-level counts. Subsequent expression analyses were performed on log2-transformed counts.
# [3] = Breast Cancer, Post minus Pre, unpaired biopsies, log2-transformed counts
# [4] = Breast Cancer, post- vs pre-treatment unpaired biopsies
# [5] = Breast Cancer, unpaired, RNA-seq log2-transformed normalized counts
# [6] = Non-Small Cell Lung Cancer, Post minus Pre, unpaired biopsies, log2-transformed counts
# [7] = Non-Small Cell Lung Cancer, post- vs pre-treatment unpaired biopsies
# [8] = Non-Small Cell Lung Cancer, unpaired, RNA-seq log2-transformed normalized counts
# [9] = Ovarian Cancer, Post minus Pre, unpaired biopsies, log2-transformed counts
# [10] = Ovarian Cancer, post- vs pre-treatment unpaired biopsies
# [11] = Ovarian Cancer, unpaired, RNA-seq log2-transformed normalized counts
# [12] = Sarcoma, Post minus Pre, unpaired biopsies, log2-transformed counts
# [13] = Sarcoma, post- vs pre-treatment unpaired biopsies
# [14] = Sarcoma, unpaired, RNA-seq log2-transformed normalized counts
structure (smiles),measurement,setting,value
N.N.[Cl][Pt][Cl] [cisplatin],CD46 expression diff,"[1]; Biliary Cancer, Post minus Pre, unpaired biopsies, log2-transformed counts",−0.06
same,CD46 expression Percentage change,"[1]; Biliary Cancer, post- vs pre-treatment unpaired biopsies",−1.0%
same,CD46 expression Post,"[1]; Biliary Cancer, unpaired, RNA-seq log2-transformed normalized counts",5.76
same,CD46 expression diff,"[1]; Bladder Cancer, post minus pre, unpaired biopsies",−0.19
same,CD46 expression Percentage change,"[1]; Bladder Cancer, post vs pre, unpaired biopsies",−3.1%
same,CD46 expression Post,"[1]; Bladder Cancer, log2-transformed RNA-seq counts",6.00
same,CD46 expression Pre,"[1]; Bladder Cancer, pre-treatment biopsies, log2-transformed RNA-seq counts",6.19
same,CD46 expression diff,[1]; [3],0.02
same,CD46 expression Percentage change,[1]; [4],0.3%
same,CD46 expression Post,[1]; [5],5.98
same,CD46 expression diff,"[1]; Endometrial Cancer, Post minus Pre, unpaired biopsies, log2-transformed counts",0.26
same,CD46 expression Percentage change,"[1]; Endometrial Cancer, post- vs pre-treatment unpaired biopsies",4.6%
same,CD46 expression Post,"[1]; Endometrial Cancer, unpaired, RNA-seq log2-transformed normalized counts",5.99
same,CD46 expression diff,"[1]; Head and Neck Squamous Cell Carcinoma, Post minus Pre, unpaired biopsies, log2-transformed counts",0.13
same,CD46 expression Percentage change,"[1]; Head and Neck Squamous Cell Carcinoma, post- vs pre-treatment unpaired biopsies",2.4%
same,CD46 expression Post,"[1]; Head and Neck Squamous Cell Carcinoma, unpaired, RNA-seq log2-transformed normalized counts",5.69
same,CD46 expression diff,[1]; [6],−0.05
same,CD46 expression Percentage change,[1]; [7],−0.8%
same,CD46 expression Post,[1]; [8],6.11
same,CD46 expression diff,[1]; [9],0.03
same,CD46 expression Percentage change,[1]; [10],0.6%
same,CD46 expression Post,[1]; [11],5.79
same,CD46 expression diff,"[1]; Pancreatic Cancer, Post minus Pre, unpaired biopsies, log2-transformed counts",0.18
same,CD46 expression Percentage change,"[1]; Pancreatic Cancer, post- vs pre-treatment unpaired biopsies",3.1%
same,CD46 expression Post,"[1]; Pancreatic Cancer, unpaired, RNA-seq log2-transformed normalized counts",6.16
same,CD46 expression diff,[1]; [12],0.19
same,CD46 expression Percentage change,[1]; [13],3.9%
same,CD46 expression Post,[1]; [14],5.02
same,CD46 expression after treatment vs pre-treatment,"[1]; head and neck squamous cell carcinoma, unpaired biopsies, FIG. 7",significantly higher
same,CD46 expression diff (post minus pre),[2]; Biliary Cancer,0.15
same,Percent Change in CD46 expression,[2]; Biliary Cancer,2.6%
same,"CD46 expression, Post-Treatment Biopsy",[2]; Biliary Cancer,5.97
same,"CD46 expression, Pre-Treatment Biopsy",[2]; Biliary Cancer,5.82
same,CD46 expression diff (post minus pre),[2]; Bladder Cancer,0.10
same,Percent Change in CD46 expression,[2]; Bladder Cancer,1.6%
same,"CD46 expression, Pre-Treatment Biopsy",[2]; Bladder Cancer,6.15
same,CD46 expression diff (post minus pre),[2]; Non-Small Cell Lung Cancer,−0.45
same,Percent Change in CD46 expression,[2]; Non-Small Cell Lung Cancer,−7.2%
same,"CD46 expression, Post-Treatment Biopsy",[2]; Non-Small Cell Lung Cancer,5.85
O=P1(N(CCCl)CCCl)NCCCO1 (centres unmarked) [cyclophosphamide],CD46 expression diff,[1]; [3],−0.03
same,CD46 expression Percentage change,[1]; [4],−0.4%
same,CD46 expression Post,[1]; [5],6.08
same,CD46 expression diff,[1]; [9],0.11
same,CD46 expression Percentage change,[1]; [10],1.9%
same,CD46 expression Post,[1]; [11],5.76
same,CD46 expression diff,[1]; [12],0.06
same,CD46 expression Percentage change,[1]; [13],1.2%
same,CD46 expression Post,[1]; [14],5.12
same,CD46 expression diff (post minus pre),[2]; Breast Cancer,0.01
same,Percent Change in CD46 expression,[2]; Breast Cancer,0.2%
same,"CD46 expression, Post-Treatment Biopsy",[2]; Breast Cancer,6.22
C[C@@H]1C[C@H]2[C@@H]3CCC4=CC(=O)C=C[C@]4(C)[C@@]3(F)[C@@H](O)C[C@]2(C)[C@@]1(O)C(=O)CO [dexamethasone],CD46 expression diff,[1]; [3],−0.07
same,CD46 expression Percentage change,[1]; [4],−1.1%
same,CD46 expression Post,[1]; [5],6.20
same,CD46 expression diff,"[1]; Colorectal Cancer, Post minus Pre, unpaired biopsies, log2-transformed counts",0.06
same,CD46 expression Percentage change,"[1]; Colorectal Cancer, post- vs pre-treatment unpaired biopsies",1.0%
same,CD46 expression Post,"[1]; Colorectal Cancer, unpaired, RNA-seq log2-transformed normalized counts",6.44
same,CD46 expression diff,[1]; [6],0.00
same,CD46 expression Percentage change,[1]; [7],0.0%
same,CD46 expression Post,[1]; [8],6.14
same,CD46 expression diff,"[1]; Ovarian Cancer, post minus pre, unpaired biopsies",−0.22
same,CD46 expression Percentage change,"[1]; Ovarian Cancer, post vs pre, unpaired biopsies",−3.9%
same,CD46 expression Post,"[1]; Ovarian Cancer, log2-transformed RNA-seq counts",5.48
same,CD46 expression diff,"[1]; Pancreatic Cancer, post minus pre, unpaired biopsies",−0.27
same,CD46 expression Percentage change,"[1]; Pancreatic Cancer, post vs pre, unpaired biopsies",−4.5%
same,CD46 expression Post,"[1]; Pancreatic Cancer, log2-transformed RNA-seq counts",5.75
same,CD46 expression diff (post minus pre),[2]; Colorectal Cancer,−0.19
same,Percent Change in CD46 expression,[2]; Colorectal Cancer,−3.0%
same,"CD46 expression, Post-Treatment Biopsy",[2]; Colorectal Cancer,5.96
CC(=O)O[C@@]12CO[C@@H]1C[C@H](O)[C@@]1(C)C(=O)[C@H](O)C3=C(C)[C@@H](OC(=O)[C@H](O)[C@@H](NC(=O)OC(C)(C)C)c4ccccc4)C[C@@](O)([C@@H](OC(=O)c4ccccc4)[C@H]21)C3(C)C [docetaxel],CD46 expression diff,[1]; [3],0.04
same,CD46 expression Percentage change,[1]; [4],0.7%
same,CD46 expression Post,[1]; [5],6.23
same,CD46 expression diff,"[1]; Gastric Cancer, post minus pre, unpaired biopsies",−0.17
same,CD46 expression Percentage change,"[1]; Gastric Cancer, post vs pre, unpaired biopsies",−3.0%
same,CD46 expression Post,"[1]; Gastric Cancer, log2-transformed RNA-seq counts",5.59
same,CD46 expression diff,[1]; [6],0.02
same,CD46 expression Percentage change,[1]; [7],0.3%
same,CD46 expression diff,[1]; [9],0.12
same,CD46 expression Percentage change,[1]; [10],2.1%
same,CD46 expression Post,[1]; [11],5.88
same,CD46 expression diff,"[1]; Prostate Cancer, Post minus Pre, unpaired biopsies, log2-transformed counts",−0.14
same,CD46 expression Percentage change,"[1]; Prostate Cancer, post- vs pre-treatment unpaired biopsies",−2.2%
same,CD46 expression Post,"[1]; Prostate Cancer, unpaired, RNA-seq log2-transformed normalized counts",6.02
same,CD46 expression diff,"[1]; Sarcoma, post minus pre, unpaired biopsies",−0.14
same,CD46 expression Percentage change,"[1]; Sarcoma, post vs pre, unpaired biopsies",−2.8%
same,CD46 expression Post,"[1]; Sarcoma, log2-transformed RNA-seq counts",5.00
same,CD46 expression diff (post minus pre),[2]; Breast Cancer,0.22
same,Percent Change in CD46 expression,[2]; Breast Cancer,3.7%
same,"CD46 expression, Post-Treatment Biopsy",[2]; Breast Cancer,6.19
same,CD46 expression diff (post minus pre),[2]; Prostate Cancer,−0.03
same,Percent Change in CD46 expression,[2]; Prostate Cancer,−0.4%
same,"CD46 expression, Post-Treatment Biopsy",[2]; Prostate Cancer,5.76

# — patent US20240058464A1 (Fortis Therapeutics, Inc., priority 2021, published 2024)
